From patent publication US6340575B1, “Methods and compositions for treating abnormal cell growth related to unwanted guanine nucleotide exchange factor activity” (Onyx Pharmaceuticals, Inc., priority 1997, dated 2002) come the findings set out here.

Assay [1] addresses T1, 85 kD portion of human Tiam-1 protein (Homo sapiens, UniProt Q13009).
T1 construct: This prote in contained an intact PDZ domain, Dbl-homology (DH) domain and adjacent pleckstrin homology (PH) domain; made in house; host or cells: baculovirus-infected Sf9 (S. frugiperda) cells
The assay can be described thus: Tiam-1 Rac GEF activity assay (32P-GTP filter binding), 85 kD Tiam-1. The format is biochemical. Conditions: 85 kD Tiam-1 truncation; room temperature, 10 minutes. How it is done:
(§1) The GEF activity of the various Tiam-1 constructs described above was determined in the presence and absence of certain compounds. The following assay was utilized. Reactions were conducted at room temperature in Buffer A (20 mM Hepes pH7.3, 50 mM NaCl, 2 mM DTT, 2 mM MgCl2). All proteins and compounds were diluted to 4× their final concentrations in Buffer A (GTPases were diluted in Buffer A containing 1 μM GDP). To dilute Ascorbyl Stearate, Ascorbyl Palmitate, and Stearic Acid, 25 mM ETOH solutions were slowly added to Buffer A while vortexing vigorously. Other lipids were resuspended in aqueous solution with vortexing and bath sonication and then diluted into Buffer A. Reactions were prepared and at time 0, λ-^32P-GTP (DuPont NEN #NEG006H) was added to 4.5 nM, and after 10 minutes reactions were stopped by filtering onto nitrocellulose filters (Millipore #HAWP02500) and immediately washed with wash buffer (25 mM Tris 7.5, 100 mM NaCl, 30 mM MgCl2). Bound λ-^32P-GTP was measured, using standard techniques.
The 85 kD portion of human Tiam-1 protein was produced in insect cells and purified by affinity chromatography, as described above. This prote in contained an intact PDZ domain, Dbl-homology (DH) domain and adjacent pleckstrin homology (PH) domain (FIG. 3). […] Several other lipids were tested to determine the specificity of activation. […] As a control, experiments were run to determine if IP3, IP2, ascorbic acid, stearic acid and ascorbic acid with stearic acid were sufficient to activate the GEF activity of Tiam-1.

Assay [2] deals with T2, 135 kD Tiam-1 truncation (Homo sapiens, UniProt Q13009).
T2 construct: made in house; host or cells: baculovirus-infected Sf9 (S. frugiperda) cells
The assay can be described thus: Tiam-1 Rac GEF activity assay (32P-GTP filter binding), 135 kD Tiam-1. The format is biochemical. How it is done: as §1
(§2) It has been previously reported that Tiam-1 has GEE activity in the absence absence of lipids. See, Michiels, F., Habets, G. G., Stam, J. C., van der Kammen, R. A., and Collard, J. G. (1995) Nature 375,338-340. Those studies used a miouse version containing additional upstream sequences, including the N-terminal PH domain and the coiled-coil region. […]

Assay [3] relates to ΔPH versions of Tiam-1. Nature of the assay: Tiam-1 Rac GEF activity assay, truncations with deleted C-terminal PH domain. The format is biochemical, human. The note with it: truncations lacking half of the C-terminal PH domain and the rest of the C-terminus. How it is done: ΔPH versions of Tiam-1: The oligonucleotides 5′-[…]-3′ SEQ ID NO.24 and 5′-[…]-3′ SEQ ID NO.25 were used as linkers to recircularize Eco47III (4487) and XmaI-digested pAcC4-based expression vectors containing the 135 kD, 106 kD, 85 kD, and 66 kD versions of Tiam-1.
as §1, with “techniques. […]” for “techniques.”

Assay [4] deals with Other truncations of Tiam-1, all containing the DH and PH domains. Nature of the assay: Tiam-1 Rac GEF activity assay, other truncations containing the DH and PH domains. The format is biochemical, human. The note with it: other Tiam-1 truncations containing DH and PH domains. How it is done:
as §1, §2

Assay [5] deals with Type I Rac-GEF. Nature of the assay: Guanine nucleotide exchange activity of Type I Rac-GEF with added PH domain ligand. The format is biochemical, human. The note with it: Type I form lacking the Dbl insert region. How it is done:
(§3) Two Rac-GEFs were tested for guanine nucleotide activity. Firstly, a Glu-epitope tag (MEYMPMEIRHD) (SEQ ID NO:32) was engineered onto the carboxy-terminal 423 amino acids of the Rac GEF encoded by EST No. 167059 by introducing the oligos 5′-[…]-3′ SEQ ID NO.5 and the complementary 5′-[…]-3′ SEQ ID NO.6 into the XhoI/EcoRI sites of the clone. The protein encoded by this construct is referred to as Type I Rac-GEF.
(§4) Next, the sequence encoding the insertion in the Dbl homology region, as described in Example 1, was engineered into the open reading frame in the expression plasmid pET21a (Novagen). The protein encoded by this construct is referred to as Type II Rac-GEF. The resulting expression plasmids were introduced into E. coli strain BL21(DE3)pLysS (Novagen), and the epitope tagged protein expression was induced with IPTG. The expressed proteins were purified using a resin with the antibody to the Glu-epitope covalently attached. The resulting proteins were partially pure and were assayed for exchange activity on Rac1, RhoA and Cdc42. See, Hart, in U.S. Ser. No. 60/029,979, filed Nov. 6, 1996 now abandoned.

Assay [6] addresses T3, Type II Rac-GEF (Homo sapiens, UniProt Q8N5V2).
T3 construct: made in house; host or cells: E. coli BL21(DE3)pLysS, plasmid pET21a
T3 sequence (Q8N5V2 264-710 limits assumed): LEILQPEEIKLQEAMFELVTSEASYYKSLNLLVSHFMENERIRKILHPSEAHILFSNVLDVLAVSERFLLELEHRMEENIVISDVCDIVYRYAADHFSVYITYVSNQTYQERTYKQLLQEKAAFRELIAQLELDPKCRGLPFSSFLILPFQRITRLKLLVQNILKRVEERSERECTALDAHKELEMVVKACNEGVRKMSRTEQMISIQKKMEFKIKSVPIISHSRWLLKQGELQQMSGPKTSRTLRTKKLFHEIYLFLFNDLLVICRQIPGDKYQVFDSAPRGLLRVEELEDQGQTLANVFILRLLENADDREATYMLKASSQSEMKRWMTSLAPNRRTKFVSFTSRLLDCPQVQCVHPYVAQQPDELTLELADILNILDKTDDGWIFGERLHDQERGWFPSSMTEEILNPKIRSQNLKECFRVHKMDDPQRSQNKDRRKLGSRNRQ
The assay can be described thus: Guanine nucleotide exchange activity of Type II Rac-GEF with added PH domain ligand. The format is biochemical. Conditions: Type II form containing the Dbl insert region. How it is done:
as §3, §4

Assay [7] concerns RhoA. The assay can be described thus: Exchange activity of Rac GEF on RhoA. The class given is biochemical. Conditions: partially pure Glu-tagged protein. How it is done:
as §3, §4

Assay [8] deals with Cdc42. Nature of the assay: Exchange activity of Rac GEF on Cdc42. The class given is biochemical. The note with it: partially pure Glu-tagged protein. How it is done: as §3, §4
Assay [9] deals with Rac1. The assay can be described thus: Exchange activity of Rac GEF on Rac1. The note with it: partially pure Glu-tagged protein. The format is biochemical. How it is done: as §3, §4

T1 sequence (Q13009 837-1591 limits assumed): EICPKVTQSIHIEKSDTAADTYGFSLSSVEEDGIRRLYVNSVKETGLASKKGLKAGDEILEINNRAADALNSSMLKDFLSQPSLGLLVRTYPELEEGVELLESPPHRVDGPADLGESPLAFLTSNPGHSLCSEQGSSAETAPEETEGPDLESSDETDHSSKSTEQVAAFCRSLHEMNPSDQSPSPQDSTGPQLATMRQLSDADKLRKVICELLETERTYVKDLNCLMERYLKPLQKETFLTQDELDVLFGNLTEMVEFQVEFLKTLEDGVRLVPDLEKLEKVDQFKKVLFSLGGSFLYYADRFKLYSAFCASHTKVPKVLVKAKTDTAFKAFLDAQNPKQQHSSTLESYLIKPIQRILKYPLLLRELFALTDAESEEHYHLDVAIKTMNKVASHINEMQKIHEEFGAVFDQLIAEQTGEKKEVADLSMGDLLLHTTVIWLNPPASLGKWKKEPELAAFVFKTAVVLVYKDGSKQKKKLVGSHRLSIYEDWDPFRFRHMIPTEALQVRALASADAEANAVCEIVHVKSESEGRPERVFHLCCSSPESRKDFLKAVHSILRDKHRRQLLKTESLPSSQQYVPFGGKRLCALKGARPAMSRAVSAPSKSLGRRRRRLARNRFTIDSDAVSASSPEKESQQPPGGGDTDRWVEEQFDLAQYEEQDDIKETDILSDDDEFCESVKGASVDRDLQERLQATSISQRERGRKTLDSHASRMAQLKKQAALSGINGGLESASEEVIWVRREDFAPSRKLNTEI
T2 sequence (Q13009 402-1591 limits assumed): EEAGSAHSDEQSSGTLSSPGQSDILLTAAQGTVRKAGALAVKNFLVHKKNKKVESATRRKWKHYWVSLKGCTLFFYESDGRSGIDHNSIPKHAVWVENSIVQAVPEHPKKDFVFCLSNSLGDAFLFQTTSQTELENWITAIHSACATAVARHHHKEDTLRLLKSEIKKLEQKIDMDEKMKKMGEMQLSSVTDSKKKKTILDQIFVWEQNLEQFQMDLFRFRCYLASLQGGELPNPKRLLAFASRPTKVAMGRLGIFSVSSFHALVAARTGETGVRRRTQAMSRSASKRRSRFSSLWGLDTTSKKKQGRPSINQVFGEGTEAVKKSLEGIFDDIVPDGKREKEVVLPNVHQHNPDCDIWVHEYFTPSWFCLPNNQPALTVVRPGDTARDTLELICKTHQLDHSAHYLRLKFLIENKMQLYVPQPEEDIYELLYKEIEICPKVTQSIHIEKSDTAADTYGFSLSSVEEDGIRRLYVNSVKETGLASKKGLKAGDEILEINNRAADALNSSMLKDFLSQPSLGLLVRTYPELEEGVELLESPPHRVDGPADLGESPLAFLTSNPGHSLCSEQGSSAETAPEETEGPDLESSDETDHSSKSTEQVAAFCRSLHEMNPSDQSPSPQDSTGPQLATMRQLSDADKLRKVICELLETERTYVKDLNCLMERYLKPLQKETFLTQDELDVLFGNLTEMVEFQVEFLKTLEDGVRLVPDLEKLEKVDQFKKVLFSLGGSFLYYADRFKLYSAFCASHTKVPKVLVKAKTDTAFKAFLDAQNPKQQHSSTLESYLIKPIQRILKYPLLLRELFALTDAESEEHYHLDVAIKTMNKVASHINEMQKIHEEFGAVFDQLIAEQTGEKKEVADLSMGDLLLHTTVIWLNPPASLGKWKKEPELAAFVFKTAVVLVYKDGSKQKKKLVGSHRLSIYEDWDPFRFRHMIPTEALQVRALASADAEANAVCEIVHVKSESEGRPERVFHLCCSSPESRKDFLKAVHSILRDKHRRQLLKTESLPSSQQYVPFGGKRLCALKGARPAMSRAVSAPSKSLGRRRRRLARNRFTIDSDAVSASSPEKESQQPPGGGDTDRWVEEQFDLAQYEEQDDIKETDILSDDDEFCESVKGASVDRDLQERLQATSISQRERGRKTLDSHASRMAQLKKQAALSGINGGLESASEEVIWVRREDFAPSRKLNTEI

As for `CCCCCCCCCCCCCCCC(=O)OC[C@H](O)[C@H]1OC(=O)C(O)=C1O` [Ascorbyl palmitate], the “stimulation of Tiam-1 GEF activity (nucleotide exchange on Rac 1)” value (shortened to “stimulation … (nucleotide exchange on Rac 1)”) in [1] is reported as “significantly enhanced”.

As to `O[C@@H](CS)[C@@H](O)CS` [DTT], in assay [1], the “stimulation … (nucleotide exchange on Rac 1)” value is “not to significantly stimulate”.

As to `O=P(O)(O)O[C@@H]1[C@H](O)[C@H](O)[C@@H](OP(=O)(O)O)[C@H](OP(=O)(O)O)[C@H]1O` [IP3], the “stimulation … (nucleotide exchange on Rac 1)” value in assay [1] is on record as “incapable of stimulating GEF activity”.

In the case of `O=C(O)CCP(CCC(=O)O)CCC(=O)O` [TCEP, Tris (2-carboxyethyl)phosphine], the “stimulation … (nucleotide exchange on Rac 1)” value in [1] is “not to significantly stimulate”.

As for `O=C1O[C@H]([C@@H](O)CO)C(O)=C1O` [ascorbic acid], the “stimulation … (nucleotide exchange on Rac 1)” value in assay [1] is recorded as “incapable of stimulating GEF activity”.

Take `CCCCCCCCCCCCCCCCCC(=O)OC[C@H](O)[C@H]1OC(=O)C(O)=C1O` [ascorbyl stearate]: in assay [2], the “stimulation of Tiam-1 GEF activity towards Rac” value is listed as “greatly stimulated”. The “activation of Tiam-1 GEF activity” value in [3] is given as “not activated”. Besides, the “stimulation of GEF activity on Rac 1” value in [4] is on record as “stimulated GEF activity”. Besides, in assay [5], the “effect of addition on exchange activity of Type I Rac-GEF” value is “unaffected”. Also, the “effect of addition on exchange activity of Type II Rac-GEF” value in assay [6] is “strongly stimulated”. Besides, the “stimulation … (nucleotide exchange on Rac 1)” value in assay [1] is given as “stimulated the rate of Tiam-1-mediated nucleotide exchange”.

For the molecule `CCCCCCCCO[C@@H]1O[C@H](CO)[C@@H](O)[C@H](O)[C@H]1O` [nOG], the “stimulation … (nucleotide exchange on Rac 1)” value in assay [1] is recorded as “not to significantly stimulate”.

As to `CCCCCCCCCCCCCCCCCC(=O)O` [stearic acid], the “stimulation … (nucleotide exchange on Rac 1)” value in [1] is reported as “incapable of stimulating GEF activity”.

Regarding NP40, the “stimulation … (nucleotide exchange on Rac 1)” value in assay [1] is “not to significantly stimulate”.

As to TRITON X-100, the “stimulation … (nucleotide exchange on Rac 1)” value in assay [1] is recorded as “not to significantly stimulate”.

On to phosphatidyiholine, for which the “stimulation … (nucleotide exchange on Rac 1)” value in assay [1] is “little or no effect”.

For the molecule phosphatidylglycerol, the “stimulation … (nucleotide exchange on Rac 1)” value in [1] was “little or no effect”.

For phosphatidylinositol, the “stimulation … (nucleotide exchange on Rac 1)” value in assay [1] is on record as “little or no effect”.

As to “phosphatidylinositol-3,4,5-trisphosphate”, in assay [1], the “stimulation … (nucleotide exchange on Rac 1)” value was “weak effects”.

Consider phosphatidylinositol-4,5-bisphosphate, for which the “stimulation … (nucleotide exchange on Rac 1)” value in assay [1] is “significantly enhanced”.

With phosphatidylinositol-4-phosphate, the “stimulation … (nucleotide exchange on Rac 1)” value in [1] was “significantly enhanced”.

phosphatidylserine: the “stimulation … (nucleotide exchange on Rac 1)” value in assay [1] is recorded as “weak effects”.

B1: Rac GEF: Glu-epitope tagged Type I and Type II Rac-GEF proteins expressed in E. coli, partially pure (protein)
chain: MEYMPMEIRHDLEILQPEEIKLQEAMFELVTSEASYYKSLNLLVSHFMENERIRKILHPSEAHILFSNVLDVLAVSERFLLELEHRMEENIVISDVCDIVYRYAADHFSVYITYVSNQTYQERTYKQLLQEKAAFRELIAQLELDPKCRGLPFSSFLILPFQRITRLKLLVQNILKRVEERSERECTALDAHKELEMVVKACNEGVRKMSRTEQMISIQKKMEFKIKSVPIISHSRWLLKQGELQQMSGPKTSRTLRTKKLFHEIYLFLFNDLLVICRQIPGDKYQVFDSAPRGLLRVEELEDQGQTLANVFILRLLENADDREATYMLKASSQSEMKRWMTSLAPNRRTKFVSFTSRLLDCPQVQCVHPYVAQQPDELTLELADILNILDKTDDGWIFGERLHDQERGWFPSSMTEEILNPKIRSQNLKECFRVHKMDDPQRSQNKDRRKLGSRNRQ
Regarding B1, in assay [7], the “exchange activity on RhoA” value was “displays activity”. In addition, in assay [8], the “exchange activity on Cdc42” value is on record as “displays activity”. Further, the “exchange activity on Rac1” value in assay [9] is on record as “primarily selective”.
